Source: patent publication EP2338485A1, “Substituted 1,3-dioxoisoindolines as medicine” (Grünenthal GmbH, priority 2009, dated 2011)
pIC50: −log10 of the molar value. Like-named read-outs stand apart in the source and are kept apart here.

Test system: vGLUT1- bzw. vGLUT2-Transporter
Test: Glutamate uptake into rat crude synaptic vesicles ([3H]-glutamate uptake)
Format: biochemical, Ratte
Conditions: for VGLUT (Ratte), Hemmung [%]: test concentration not given
Description: I. Funktionelle Untersuchung an den vGLUT1- bzw. vGLUT2-Transportern
Die agonistische bzw. antagonistische Wirkung der zu untersuchenden Verbindungen am vGLUT1- bzw. vGLUT2-Transporter der Spezies Ratte kann mit folgendem Assay bestimmt werden.
Glutamat-Uptake in Rattenvesikel ('rat crude synaptic vesicles')
Die Präparation von Vesikeln wurde aus Rattengehirn-homogenaten (männlichen Ratten, Stamm Wistar SPF, 150-250 g Gewicht) durchgeführt gemäß Roseth et al. (1995) J. Neurochem. 65: 96-103, der sich auf Whittaker et al. (1964) Biochem J. 90, 293-303 und Fykse und Fonnum (1988) J. Neurochem. 50: 1237-1242 bezieht.
Hierzu wurden frisch entnommene Rattengehirne in 0,32 M Saccharose, 10 mM TRIS-maleat, 1 mM EGTA, pH 7,4 (10 ml/g Frischgewicht) mit einem Potter-Homogenisator (Fa. Braun/Melsungen; 5 Kolbenhübe bei 800 Upm) unter Eiskühlung homogenisiert und anschließend für 10 Minuten bei 3.000 g und 4°C zentrifugiert. Der resultierende Überstand wurde bei 20.000 g für 30 Minuten bei 4°C zentrifugiert. Das entstandene Pellet wurde dann im Verhältnis 1:3 mit 10 mM TRIS-maleate, 0,1 mM EGTA, pH 7,4 osmotisch geschockt und die Suspension bei 17000g für 30 min (4°C) zentrifugiert. Die im Überstand verbliebenen Vesikel wurden nun auf einen Dichtegradienten aus 0,6 M Saccharose in 10 mM TRIS-maleat, 1 mM EGTA, pH 7.4 und 0.4 M Saccharose in 10 mM TRIS-maleat, 1 mM EGTA, pH 7.4 geschichtet. Eine Ultrazentrifugation der Gradienten im Ausschwingrotor bei 65000g für 2h (4°C) schloss sich an. Die Vesikel-Fraktion wurde von der 0.4 M Saccharose-Bande isoliert und im Uptake-Versuch eingesetzt.
Die Substratlösung für den Uptake von [^3H]-Glutamat bestand aus ATP (neutralisiert mit Trisma base; 2 mM im Endansatz), Glutamat (0.5 mM im Endansatz) und ^3H-Glutamat (0.5 µCi im Endansatz). In 14 ml-Reagiergefäßen (Sarstedt, Artikel-Nr.: 798438) wurden jeweils 0,3 ml Gesamtvolumina (n=2/Probe) pipettiert in der folgenden Reihenfolge: 1.) 165 µl Inkubationspuffer (110 mM Kaliumtartrat, 10 mM TRIS-maleat, pH 7,4, 4 mM MgCl2), 2.) 10 µl Testsubstanz oder Vehikelkontrolle oder blank, 3.) 100 µl synaptische Vesikel. Es schloss sich eine Vorinkubation von 15 min bei 30°C an (nur blank-Ansätze befanden sich hierbei auf Eis). Danach wurde der Uptake durch Zugabe von 25 µl der oben beschriebenen Substratlösung gestartet. Die Reaktion wurde nach 5 min durch Zugabe von 7,0 ml eiskalter 150 mM KCI gestoppt. Anschließend wurden die Proben mit Hilfe des Brandel Cell Harvesters Typ M-24R über einen Membranfilter der Porengröße 0,8 µm abgesaugt und zweimal mit eiskalter 150 mM KCI nachgewaschen. Die Messung erfolgte am beta-Counter nach 15 h in 10 ml Szintillatorflüssigkeit (Filter Count).
Die Affinität der Verbindungen der allgemeinen Formel (I) für den vGLUT1- bzw. vGLUT2-Transporter wurde wie vorstehend beschrieben bestimmt (Pharmakologische Methoden)

[1] = compound freshly dissolved from the solid substance, read-out: VGLUT (Ratte), ICso-Fest

Row | Structure (SMILES) | pIC50 (read-out: VGLUT (Ratte), IC50) | VGLUT (Ratte), Hemmung [%] | pIC50 [1]
1 | O=C(Nc1ccccc1C(=O)O)c1cccc(N2C(=O)c3ccc(C(=O)Nc4ccccc4C(=O)O)cc3C2=O)c1 [Beispiel 3, 2-(3-(5-(2-Carboxyphenylcarbamoyl)-1,3-dioxoisoindolin-2-yl)benzamido)-benzoesäure] | 6.25 | 97% | 
2 | O=C(O)c1ccccc1N1C(=O)c2ccc(Oc3ccc(Oc4ccc5c(c4)C(=O)N(c4ccccc4C(=O)O)C5=O)cc3)cc2C1=O [Beispiel 1, 2,2'-(5,5'-(1,4-Phenylenbis(oxy))bis(1,3-dioxoisoindolin-5,2-diyl))dibenzoesäure] | 5.42 | 74% | 
3 | O=C(Nc1ccc(O)cc1C(=O)O)c1ccc(N2C(=O)c3ccc(C(=O)Nc4ccc(O)cc4C(=O)O)cc3C2=O)cc1 [Beispiel 2, 2-(4-(5-(2-Carboxy-4-hydroxyphenylcarbamoyl)-1,3-dioxoisoindolin-2-yl)benzamido)-5-hydroxybenzoesäure] | 7.02 | 98% | 7.49
4 | O=C(Nc1ccc(O)cc1C(=O)O)c1ccc(N2C(=O)c3ccc(C(=O)Nc4ccc(O)cc4C(=O)O)cc3C2=O)cc1 [Beispiel 4, 2-(4-(5-(2-Carboxylato-4-hydroxyphenylcarbamoyl)-1,3-dioxoisoindolin-2-yl)-benzamido)-5-hydroxybenzoesäure, Natriumsalz] |  |  | 6.81
